Laboratory results: ChEMBL document CHEMBL5257078, “Alkaloids and Polyacetylenes from Hippobroma longiflora with Antiangiogenesis Properties” (J Nat Prod, 2023)
In brackets after ≈: the same amount, converted by molar mass.

Columns and labels:
[1] = Cytotoxicity against human EPC cells assessed as LDH release; format: toxicity, cell-based
[2] = Antiangiogenic activity in human EPC cells assessed as suppression of EPC tube formation incubated for 24 hrs by microscopic analysis; format: functional, cell-based

Structure (SMILES)	Activity [1]	IC50 [2]
C/C=C/C#C/C=C/[C@@]1(O)[C@H](CO)CC=C[C@H]1O	Non-Toxic	27.6 µg/mL (≈ 118 µM)
O=C(c1ccccc1)[C@@H]1CN2O[C@@H]1CCC[C@H]2C[C@H](O)c1ccccc1	–	30.6 µg/mL (≈ 87.1 µM)
C/C=C/C#C/C=C\c1c(O)cccc1CO	Non-Toxic	21.1 µg/mL (≈ 98.5 µM)
O=C(c1ccccc1)[C@H]1CN2O[C@H]1CCC[C@@H]2C[C@H](O)c1ccccc1	Non-Toxic	44 µg/mL (≈ 125 µM)
C/C=C/C#C/C=C/c1c(O)cccc1CO	Non-Toxic	24.5 µg/mL (≈ 114 µM)
C[N@+]1([O-])CO[C@H](c2ccccc2)C[C@@H]1CCCCCC(=O)c1ccccc1	Non-Toxic	32 µg/mL (≈ 87.1 µM)
O=C(c1ccccc1)[C@H]1CN2O[C@@H]1CCC[C@H]2C[C@H](O)c1ccccc1	Non-Toxic	33.4 µg/mL (≈ 95 µM)
CNC(=O)c1cc(Oc2ccc(NC(=O)Nc3ccc(Cl)c(C(F)(F)F)c3)cc2)ccn1 [SORAFENIB]	–	3.7 µg/mL (≈ 7.96 µM)
